Marks after values point to notes of the source that are not given here.
Legend:
[1] = system: Phenion® Full-Thickness (FT) Skin Model; test: Lipidomic profile of skin model after topical treatment (LC-MS); format: cell-based, human
[2] = MVL*H2O solubility in water (equilibrium DS content); format: physicochemical; details: calculated to purity 100
Description: Solubility is one property to characterize a crystalline compound. Crystallization is possible only above solubility concentration in supersaturated syrups. Solubility determines minimal DS concentration for the crystallization at given temperatures. The solubility is determined by standard methods like analyzing the equilibrium concentration from crystal suspension.
Equilibrium DS contents were measured and calculated between 0-20° C. range (Table 14).

[3] = system: female Caucasian subjects with dry skin; test: Skin transepidermal water loss (TEWL) after topical cream application (skin barrier function); format: in vivo, human; details: for Δ TEWL MVL (MVL cream zone − placebo cream zone): normalized to control and placebo, 1% MVL cream pH 5.5; for Δ TEWL MVL (Dx-D0): normalized to control, placebo and baseline D0
Description: Mevalonolactone was obtained and purified as described herein and formulated in a standard cosmetic base, at 1% of total composition by weight, resulting in cosmetic a composition (such as but not limited to a cosmetic cream). […] The base cream formula can be any formula well known to one skilled in the art.
Two separated studies were performed. Study 1 consisted of measuring the skin transepidermal water loss after topical application of the cosmetic creams (a cream with 1% MVL of total composition by weight called “MVL cream” and the control cream which was the same cream without MVL called “placebo”) formulated at pH=5.5, the skin physiological pH.
The cosmetic formulations comprising MVL as the active ingredient and the placebo treatment were applied to 6 female Caucasian subjects with dry skin (electrical capacitance<50 A.U.) by topical application.
For 2 weeks, each subject applied the MVL containing formulation and placebo formulation according to randomization. twice a day (in the morning and in the evening), under normal conditions of use (on clean skin, by slight massage until complete penetration), on delimited zones on their forearms.
Evaluation of the efficacy of the treatment was conducted by measuring the evolution of the transepidermal water loss of the skin induced by the cosmetic compositions on the skin. Water loss of the skin was determined by measurement of Trans Epidermal Water Loss (T.E.W.L. g/m^2/h) which is a non-invasive method to assess the integrity of the stratum corneum barrier function, by quantifying the water exchanges between the skin and the environment (Loden M. et al., 1992, British J of Dermatol 1992; 126: 137-141). Damage of the stratum corneum results in an increase in the T.E.W.L., leading to a more pervious skin. This method enables to assess and compare the protective effect of cosmetic investigational compositions on the cutaneous barrier between themselves, after repeated applications. and in comparison, with a control area (non-treated) and with values obtained before any products application.
In this study, the TEWL (g/m^2/h) was assessed at 5 different time points (Day 0 (baseline before product application). […]

[4] = system: reconstructed human epidermis (RHE); test: Caffeine diffusion test ([14C]-caffeine diffusion, barrier function); format: cell-based; details: for Barrier function (% control) / [14C]-caffeine diffusion, % control / [14C]-caffeine diffusion, Mean (cpm): systemic, 7 days
Description: A test referred to as “caffeine diffusion test” was performed, which consists of the measurement of the effect of compounds mevalonolactone (MVL) on the skin barrier reinforcement. It is one method to measure skin barrier function (strength) as when the skin barrier has been strengthened, the amount of penetrating tracer molecules decreases (i.e. if skin is damaged more, the easier the tracer penetrates the skin). In this study, the effect of mevalonolactone, was assessed on [^14C]-caffeine diffusion through reconstructed human epidermis (RHE) under basal condition, in order to evaluate the skin barrier function. Caffeine diffusion is inversely proportional to barrier function. RHE (RHE, 0-day-old, Bioalternatives reference: EPI-Ba, batch n° 01015-515) were cultured under the following conditions: 37° C., 5% CO2, and the culture media was the Bioaltematives maintenance medium. The tested MVL concentration were 0.001%, 0.005% and 0.01% by weight of assay medium, in systemic way (added to the culture media).
RHE at day 0 were placed at the air/liquid interface in culture medium containing or not (control) the test compounds, their association or the reference (vitamin C at 200 μg/ml) (systemic application). RHE were then, incubated for 7 days with treatment renewals at day 3 and day 5. All experimental conditions were performed in n=3.
At the end of incubation (D7), radioactive caffeine ([^14C]-caffeine) was applied onto the surface of each epidermis. The radioactivity contained in subnatants was measured by liquid scintillation according to the following kinetic: 30 minutes, 1 and 2 hours.
Raw data were analyzed using Microsoft Excel® software and GraphPad PRISM® software. The inter-group comparisons were performed by an unpaired Student's t-test. The statistical analysis can be interpreted if n≥5, however for n<5 the statistical values are for information only. Formulas used in this report:
Standard error of the mean: sem=Sd/√n; Barrier function: […]

[5] = 13% MVL solution in DPBS, 20 μl topical, 24 hours, vs control without MVL
[6] = MVL treated skin tissue, 24 hours

In the case of C[C@@](O)(CCO)CC(=O)O [MVA, (3R)-3,5-Dihydroxy-3-methylpentanoic acid], the “cholesterol amount (in words)” value ([1]; MVA treated skin model) is reported as “stay stable”, the “cholesterol/cholesterol sulfate ratio (in words)” value ([1]; topical MVA, exact same test condition as Example 26) is reported as “decrease” and the “MVA treatment effect: Ratio Cholesterol/Cholesterol sulfate” value ([1]; topical MVA, exact same test condition as Example 26, p = 0.088) is reported as “−”.

In the case of CC1(O)CCOC(=O)C1.O (stereo not shown) [MVL* H2O, Mevalonolactone monohydrate], the solubility ([2]; 0 °C) is reported as 43.9 % DS, the solubility ([2]; 4.8 °C) is reported as 52.3 % DS and the solubility ([2]; 9.8 °C) is reported as 61.2 % DS. For the same compound, the solubility ([2]; 15.0 °C) was 70.6 % DS and the solubility ([2]; 20.0 °C) was 79.7 % DS.

With C[C@@]1(O)CCOC(=O)C1 [MVL, (R)-3-Hydroxy-3-methyl-δ-valerolactone] the Δ TEWL MVL (MVL cream zone − placebo cream zone) ([3]; D0) was 2.06 g/m²/h, the “Δ TEWL MVL (Dx-D0)” value ([3]; D1-D0) was −0.27 and the Δ TEWL MVL (MVL cream zone − placebo cream zone) ([3]; D1) was 1.79 g/m²/h. For the same compound, the “Δ TEWL MVL (Dx-D0)” value ([3]; D3-D0) was −0.74, the Δ TEWL MVL (MVL cream zone − placebo cream zone) ([3]; D3) was 1.32 g/m²/h and the “Δ TEWL MVL (Dx-D0)” value ([3]; D7-D0) was −1.11. For the same compound, the Δ TEWL MVL (MVL cream zone − placebo cream zone) ([3]; D7) was 0.95 g/m²/h, the “Δ TEWL MVL (Dx-D0)” value ([3]; D15-D0) was −1.04 and the Δ TEWL MVL (MVL cream zone − placebo cream zone) ([3]; D15) was 1.02 g/m²/h. For the same compound, the “skin trans epidermal water loss (in words)” value ([3]; topically applied, after 2 weeks of repeated application) was “decreases the skin trans epidermal water loss”, the “Barrier function (% control)” value ([4]; 0.001%, 30 min) was 128 % control and the “[14C]-caffeine diffusion, % control” value ([4]; 0.001%, 30 min) was 77 % control. For the same compound, the “[14C]-caffeine diffusion, Mean (cpm)” value ([4]; 0.001%, 30 min) was 14907 cpm, the “Barrier function (% control)” value ([4]; 0.001%, 1 hour) was 106 % control and the “[14C]-caffeine diffusion, % control” value ([4]; 0.001%, 1 hour) was 94 % control. The “[14C]-caffeine diffusion, Mean (cpm)” value ([4]; 0.001%, 1 hour) was 48423 cpm, the “Barrier function (% control)” value ([4]; 0.001%, 2 hours) was 99 % control and the “[14C]-caffeine diffusion, % control” value ([4]; 0.001%, 2 hours) was 101 % control. For the same compound, the “[14C]-caffeine diffusion, Mean (cpm)” value ([4]; 0.001%, 2 hours) was 117165 cpm, the “Barrier function (% control)” value ([4]; 0.005%, 30 min) was 113 % control and the “[14C]-caffeine diffusion, % control” value ([4]; 0.005%, 30 min) was 87 % control. The “[14C]-caffeine diffusion, Mean (cpm)” value ([4]; 0.005%, 30 min) was 16927 cpm, the “Barrier function (% control)” value ([4]; 0.005%, 1 hour) was 93 % control and the “[14C]-caffeine diffusion, % control” value ([4]; 0.005%, 1 hour) was 107 % control. The “[14C]-caffeine diffusion, Mean (cpm)” value ([4]; 0.005%, 1 hour) was 55034 cpm, the “Barrier function (% control)” value ([4]; 0.005%, 2 hours) was 95 % control and the “[14C]-caffeine diffusion, % control” value ([4]; 0.005%, 2 hours) was 106 % control. For the same compound, the “[14C]-caffeine diffusion, Mean (cpm)” value ([4]; 0.005%, 2 hours) was 122324 cpm, the “Barrier function (% control)” value ([4]; 0.01%, 30 min) was 97 % control and the “[14C]-caffeine diffusion, % control” value ([4]; 0.01%, 30 min) was 102 % control. For the same compound, the “[14C]-caffeine diffusion, Mean (cpm)” value ([4]; 0.01%, 30 min) was 19700 cpm, the “Barrier function (% control)” value ([4]; 0.01%, 1 hour) was 96 % control and the “[14C]-caffeine diffusion, % control” value ([4]; 0.01%, 1 hour) was 104 % control. For the same compound, the “[14C]-caffeine diffusion, Mean (cpm)” value ([4]; 0.01%, 1 hour) was 53545 cpm, the “Barrier function (% control)” value ([4]; 0.01%, 2 hours) was 99 % control and the “[14C]-caffeine diffusion, % control” value ([4]; 0.01%, 2 hours) was 101 % control. For the same compound, the “[14C]-caffeine diffusion, Mean (cpm)” value ([4]; 0.01%, 2 hours) was 116509 cpm, the “MVL treatment effect: CE-Cholesterol Esters” value [1, 5] was “+” and the “MVL treatment effect: CL-CardioLipin*” value [1, 5] was “−”. For the same compound, the “MVL treatment effect: DAG-Diacylglycerol” value [1, 5] was “−”, the “MVL treatment effect: HexCer-Hexosylceramide*” value [1, 5] was “+” and the “MVL treatment effect: LPE*” value [1, 5] was “−”. The “MVL treatment effect: LPE-0” value [1, 5] was “−”, the “MVL treatment effect: LPG-lyso-PG” value [1, 5] was “−” and the “MVL treatment effect: PA-Phosphatidate (PA and LPA)” value [1, 5] was “+”. For the same compound, the “MVL treatment effect: PC Phosphatidylcholine (PC 15:1;0_16:0;0*)” value [1, 5] was “+”, the “MVL treatment effect: PC-O- Phosphatidylcholine-ether (PC-O 16:1;0/18:2;0, plasmalogen)” value [1, 5] was “+” and the “MVL treatment effect: PE (species listed, *)” value [1, 5] was “−”. For the same compound, the “MVL treatment effect: PE O-16:1;0/18:1;0*” value [1, 5] was “−”, the “MVL treatment effect: PI-Phosphatidylinositol” value [1, 5] was “−” and the “MVL treatment effect: Phosphatidylglycerol (PG species listed, *)” value [1, 5] was “−”. For the same compound, the “MVL treatment effect: TAG-Triacylglycerol (TAG 47:2;0)” value [1, 5] was “+”, the “Cholesterol level (in words)” value [1, 6] was “unchanged” and the “PG/CL versus control samples (in words)” value [1, 6] was “significant decrease”. For the same compound, the “ceramides level (in words)” value [1, 6] was “unchanged”, the “cholesterol esters (CE) versus control samples (in words)” value [1, 6] was “significant increase” and the “diacylglycerol (DAG) versus control samples (in words)” value [1, 6] was “significant decrease”. For the same compound, the “hexosylceramide (HexCer) versus control samples (in words)” value [1, 6] was “significant increase”, the “phosphatidate (PA) versus control samples (in words)” value [1, 6] was “significant increase” and the “phosphatidylcholine-ether (PC-O) versus control samples (in words)” value [1, 6] was “significant increase”. For the same compound, the “phosphatidylcholines (PC) versus control samples (in words)” value [1, 6] was “significant increase”, the “phosphatidylethanolamine-ethers (LPE, LPE-O, PE-O) versus control samples (in words)” value [1, 6] was “significant decrease” and the “phosphatidylinositol versus control samples (in words)” value [1, 6] was “significant decrease”. For the same compound, the “phosphatidylserine (PS) level (in words)” value [1, 6] was “unchanged”, the “ratio cholesterol/chol sulfate (in words)” value [1, 6] was “unchanged” and the “sphingomyelin (SM) level (in words)” value [1, 6] was “unchanged”. For the same compound, the “triacylglycerol (TAG) versus control samples (in words)” value [1, 6] was “significant increase”.

With O=C1O[C@H]([C@@H](O)CO)C(O)=C1O [Vitamin C, reference compound] the “caffeine diffusion through RHE (in words)” value ([4]; 200 μg/ml, systemic treatment) was “decreased significantly”, the “Barrier function (% control)” value ([4]; 200 microg/ml, 30 min) was 171** % control and the “[14C]-caffeine diffusion, % control” value ([4]; 200 microg/ml, 30 min) was 58 % control. For the same compound, the “[14C]-caffeine diffusion, Mean (cpm)” value ([4]; 200 microg/ml, 30 min) was 11133 cpm, the “Barrier function (% control)” value ([4]; 200 microg/ml, 1 hour) was 148** % control and the “[14C]-caffeine diffusion, % control” value ([4]; 200 microg/ml, 1 hour) was 68 % control. The “[14C]-caffeine diffusion, Mean (cpm)” value ([4]; 200 microg/ml, 1 hour) was 34839 cpm, the “Barrier function (% control)” value ([4]; 200 microg/ml, 2 hours) was 128** % control and the “[14C]-caffeine diffusion, % control” value ([4]; 200 microg/ml, 2 hours) was 79 % control. For the same compound, the “[14C]-caffeine diffusion, Mean (cpm)” value ([4]; 200 microg/ml, 2 hours) was 90717 cpm.

Source: patent US20220331219A1, “METHODS AND COMPOSITIONS FOR PROVIDING SKIN CARE BENEFITS” (DANISCO US INC., priority 2019, published 2022)
